Calls of active or inactive are those of the source. No rule for the calls is given here.
Tested on: CCRIS mutagenicity, Ames/micronucleus/aberration tests
Assay: CCRIS mutagenicity studies
[1] = Test System: AMES SALMONELLA TYPHIMURIUM, Strain/Indicator: TA98, Metabolic Activation: NONE, Method: PREINCUBATION
[2] = Test System: AMES SALMONELLA TYPHIMURIUM, Strain/Indicator: TA100, Metabolic Activation: NONE, Method: PREINCUBATION
[3] = Test System: AMES SALMONELLA TYPHIMURIUM, Strain/Indicator: TA1535, Metabolic Activation: NONE, Method: PREINCUBATION
[4] = Test System: AMES SALMONELLA TYPHIMURIUM, Strain/Indicator: TA97, Metabolic Activation: HAMSTER, LIVER, S-9, AROCLOR 1254 (10%), Method: PREINCUBATION
[5] = Test System: AMES SALMONELLA TYPHIMURIUM, Strain/Indicator: TA97, Metabolic Activation: NONE, Method: PREINCUBATION
[6] = Test System: AMES SALMONELLA TYPHIMURIUM, Strain/Indicator: TA97, Metabolic Activation: RAT, LIVER, S-9, AROCLOR 1254 (10%), Method: PREINCUBATION
[7] = Test System: AMES SALMONELLA TYPHIMURIUM, Strain/Indicator: TA98, Metabolic Activation: HAMSTER, LIVER, S-9, AROCLOR 1254 (10%), Method: PREINCUBATION
[8] = Test System: AMES SALMONELLA TYPHIMURIUM, Strain/Indicator: TA98, Metabolic Activation: RAT, LIVER, S-9, AROCLOR 1254 (10%), Method: PREINCUBATION
[9] = Test System: AMES SALMONELLA TYPHIMURIUM, Strain/Indicator: TA100, Metabolic Activation: HAMSTER, LIVER, S-9, AROCLOR 1254 (10%), Method: PREINCUBATION
[10] = Test System: AMES SALMONELLA TYPHIMURIUM, Strain/Indicator: TA100, Metabolic Activation: RAT, LIVER, S-9, AROCLOR 1254 (10%), Method: PREINCUBATION
[11] = Test System: AMES SALMONELLA TYPHIMURIUM, Strain/Indicator: TA1535, Metabolic Activation: HAMSTER, LIVER, S-9, AROCLOR 1254 (10%), Method: PREINCUBATION
[12] = Test System: AMES SALMONELLA TYPHIMURIUM, Strain/Indicator: TA1535, Metabolic Activation: RAT, LIVER, S-9, AROCLOR 1254 (10%), Method: PREINCUBATION

CC1CS1 (stereo not drawn)
mutagenic call (Test System: AMES SALMONELLA TYPHIMURIUM, Strain/Indicator: TA98, Metabolic Activation: HAMSTER, LIVER, S-9, AROCLOR 1254, Method: PREINCUBATION): inactive; negative
mutagenic call [1]: inactive; negative
mutagenic call (Test System: AMES SALMONELLA TYPHIMURIUM, Strain/Indicator: TA98, Metabolic Activation: RAT, LIVER, S-9, AROCLOR 1254, Method: PREINCUBATION): inactive; negative
mutagenic call (Test System: AMES SALMONELLA TYPHIMURIUM, Strain/Indicator: TA100, Metabolic Activation: HAMSTER, LIVER, S-9, AROCLOR 1254, Method: PREINCUBATION): inactive; negative
mutagenic call [2]: inactive; negative
mutagenic call (Test System: AMES SALMONELLA TYPHIMURIUM, Strain/Indicator: TA100, Metabolic Activation: RAT, LIVER, S-9, AROCLOR 1254, Method: PREINCUBATION): inactive; negative
mutagenic call (Test System: AMES SALMONELLA TYPHIMURIUM, Strain/Indicator: TA1535, Metabolic Activation: HAMSTER, LIVER, S-9, AROCLOR 1254, Method: PREINCUBATION): inactive; negative
mutagenic call [3]: inactive; negative
mutagenic call (Test System: AMES SALMONELLA TYPHIMURIUM, Strain/Indicator: TA1535, Metabolic Activation: RAT, LIVER, S-9, AROCLOR 1254, Method: PREINCUBATION): inactive; negative
mutagenic call (Test System: AMES SALMONELLA TYPHIMURIUM, Strain/Indicator: TA1537, Metabolic Activation: HAMSTER, LIVER, S-9, AROCLOR 1254, Method: PREINCUBATION): inactive; negative
mutagenic call (Test System: AMES SALMONELLA TYPHIMURIUM, Strain/Indicator: TA1537, Metabolic Activation: NONE, Method: PREINCUBATION): inactive; negative
mutagenic call (Test System: AMES SALMONELLA TYPHIMURIUM, Strain/Indicator: TA1537, Metabolic Activation: RAT, LIVER, S-9, AROCLOR 1254, Method: PREINCUBATION): inactive; negative
mutagenic call (Test System: AMES SALMONELLA TYPHIMURIUM, Strain/Indicator: TA1538, Metabolic Activation: HAMSTER, LIVER, S-9, AROCLOR 1254, Method: PREINCUBATION): inactive; negative
mutagenic call (Test System: AMES SALMONELLA TYPHIMURIUM, Strain/Indicator: TA1538, Metabolic Activation: NONE, Method: PREINCUBATION): inactive; negative
mutagenic call (Test System: AMES SALMONELLA TYPHIMURIUM, Strain/Indicator: TA1538, Metabolic Activation: RAT, LIVER, S-9, AROCLOR 1254, Method: PREINCUBATION): inactive; negative
mutagenic call (Test System: MOUSE LYMPHOMA, Strain/Indicator: L5178Y (TK+/TK-), Metabolic Activation: NONE, Method: SUSPENSION/PLATE): active; positive. reevaluation of results: positive
mutagenic call (Test System: Mouse lymphoma, Strain/Indicator: L5178Y (tk+/tk-), Metabolic Activation: Rat, Liver, S-9, Aroclor 1254, Method: Suspension/plate): active; equivocal (previous evaluation positive)

O=[N+]([O-])c1ccc(Nc2ccc(O)cc2)c([N+](=O)[O-])c1
mutagenic call [4]: active; positive
mutagenic call [5]: inactive; negative
mutagenic call [6]: inactive; negative
mutagenic call [7]: active; positive
mutagenic call [1]: active; positive
mutagenic call [8]: active; positive
mutagenic call [9]: active; positive
mutagenic call [2]: active; positive
mutagenic call [10]: active; positive
mutagenic call [11]: inactive; negative
mutagenic call [3]: inactive; negative
mutagenic call [12]: inactive; negative

Nc1cc(Cl)c([N+](=O)[O-])cc1O
mutagenic call [4]: active; positive
mutagenic call [5]: active; positive
mutagenic call [6]: active; positive
mutagenic call [7]: active; positive
mutagenic call [1]: active; positive
mutagenic call [8]: active; positive
mutagenic call [9]: active; positive
mutagenic call [2]: inactive; negative
mutagenic call [10]: inactive; negative
mutagenic call [11]: inactive; negative
mutagenic call [3]: inactive; negative
mutagenic call [12]: inactive; negative

O=C(O)c1ccccc1Nc1cccc(C(F)(F)F)c1
mutagenic call (Test System: AMES SALMONELLA TYPHIMURIUM, Strain/Indicator: TA98, Metabolic Activation: RAT, LIVER, S-9, PCB, Method: STANDARD PLATE): inactive; negative
mutagenic call (Test System: AMES SALMONELLA TYPHIMURIUM, Strain/Indicator: TA100, Metabolic Activation: RAT, LIVER, S-9, PCB, Method: STANDARD PLATE): inactive; negative
mutagenic call (Test System: AMES SALMONELLA TYPHIMURIUM, Strain/Indicator: TA1537, Metabolic Activation: RAT, LIVER, S-9, PCB, Method: STANDARD PLATE): inactive; negative
mutagenic call (Test System: AMES SALMONELLA TYPHIMURIUM, Strain/Indicator: TA1538, Metabolic Activation: RAT, LIVER, S-9, PCB, Method: STANDARD PLATE): inactive; negative
mutagenic call (Test System: E. COLI, Strain/Indicator: WP2 UVRA, Metabolic Activation: RAT, LIVER, S-9, PCB, Method: STANDARD PLATE): inactive; negative

O=[O+][O-]
mutagenic call (Test System: AMES SALMONELLA TYPHIMURIUM, Strain/Indicator: TA98, Metabolic Activation: NONE, Method: VAPOR CHAMBER): inactive; negative
mutagenic call (Test System: AMES SALMONELLA TYPHIMURIUM, Strain/Indicator: TA98, Metabolic Activation: RAT, LIVER, S-9, AROCLOR 1254, Method: VAPOR CHAMBER): inactive; negative
mutagenic call (Test System: AMES SALMONELLA TYPHIMURIUM, Strain/Indicator: TA100, Metabolic Activation: NONE, Method: VAPOR CHAMBER): inactive; negative
mutagenic call (Test System: AMES SALMONELLA TYPHIMURIUM, Strain/Indicator: TA100, Metabolic Activation: RAT, LIVER, S-9, AROCLOR 1254, Method: VAPOR CHAMBER): inactive; negative
mutagenic call (Test System: AMES SALMONELLA TYPHIMURIUM, Strain/Indicator: TA102, Metabolic Activation: NONE): active; positive
mutagenic call (Test System: AMES SALMONELLA TYPHIMURIUM, Strain/Indicator: TA102, Metabolic Activation: NONE, Method: VAPOR CHAMBER): active; positive
mutagenic call (Test System: AMES SALMONELLA TYPHIMURIUM, Strain/Indicator: TA102, Metabolic Activation: RAT, LIVER, S-9, AROCLOR 1254 (10%)): active; positive
mutagenic call (Test System: AMES SALMONELLA TYPHIMURIUM, Strain/Indicator: TA102, Metabolic Activation: RAT, LIVER, S-9, AROCLOR 1254, Method: VAPOR CHAMBER): active; positive
mutagenic call (Test System: AMES SALMONELLA TYPHIMURIUM, Strain/Indicator: TA104, Metabolic Activation: NONE, Method: VAPOR CHAMBER): inactive; negative
mutagenic call (Test System: AMES SALMONELLA TYPHIMURIUM, Strain/Indicator: TA104, Metabolic Activation: RAT, LIVER, S-9, AROCLOR 1254, Method: VAPOR CHAMBER): inactive; negative
mutagenic call (Test System: AMES SALMONELLA TYPHIMURIUM, Strain/Indicator: TA1535, Metabolic Activation: NONE, Method: VAPOR CHAMBER): inactive; negative
mutagenic call (Test System: AMES SALMONELLA TYPHIMURIUM, Strain/Indicator: TA1535, Metabolic Activation: RAT, LIVER, S-9, AROCLOR 1254, Method: VAPOR CHAMBER): inactive; negative
